Experimental data reported in patent publication US20250340575A1, “4-AMINOPYRROLO[2,1-F][1,2,4]TRIAZINES AND PREPARATION AND USES THEREOF” (Biosplice Therapeutics, Inc., priority 2024, published 2025).

biological target: recombinant DYRK1A kinase (Homo sapiens, UniProt Q13627); assay: DYRK1A kinase assay (Ser/Thr 18 peptide Z-lyte FRET); format: biochemical; details: DYRK1A 0.25 μg/mL, ATP 15 μM, Ser/Thr peptide 18 4 μM, one hour at room temperature, 11-point dose-response from 10 μM
Description: Representative compounds were screened using the assay procedure for DYRK1A kinase activity as described below.
Each compound was dissolved in DMSO as a 10 mM stock and used to prepare compound source plates. Serial dilution (1:3, 11-point dose-response curves from 10 μM to 0.00016 μM) and compound transfer was performed using the ECHO 550 (Labcyte, Sunnyvale, CA) into 1536-well black-walled round bottom plates (Corning).
The DYRK1A kinase assay was run using the Ser/Thr 18 peptide Z-lyte assay kit according to manufacturer's instructions (Life Technologies—a Division of Thermo-Fisher). This is a non-radioactive assay using fluorescence resonance energy transfer (FRET) between coumarin and fluorescein to detect kinase activity which is represented as a ratio of coumarin emission/fluorescein emission.
Briefly, recombinant DYRK1A kinase, ATP and Ser/Thr peptide 18 were prepared in 1× Kinase buffer to final concentrations of 0.25 μg/mL, 15 μM, and 4 μM respectively. The mixture was allowed to incubate with the representative compounds for one hour at room temperature. All reactions were performed in duplicate. Unphosphorylated (“0% Control”) and phosphorylated (“100% control”) forms of Ser/Thr 18 served as control reactions. Additionally, an 11-point dose-response curve of Staurosporine (1 uM top) was run to serve as a positive compound control.
After incubation, Development Reagent A was diluted in Development Buffer then added to the reaction and allowed to further incubate for one hour at room temperature. The plate was read at Ex 400 Em 455 to detect the coumarin signal and Ex 400 Em 520 to measure the signal (EnVision Multilabel Plate Reader, PerkinElmer).
The Emission ratio (Em) was calculated as a ratio of the coumarin (C) emission signal (at 445 nm)/Fluorescein (F) emission signal (at 520 nm). The percent phosphorylation was then calculated using the following formula: [1−((Em ratio×F100%)−C100%)/((C0%−C100%)+(Em ratio×(F100%−F0%)))]. Dose-response curves were generated, and inhibitory concentration (IC50) values were calculated using non-linear regression curve fit in the Dotmatics' Studies Software (Bishops Stortford, UK).

Row | SMILES | IC50
1 | CC(=O)N1CC[C@H](Nc2nc(N)c3c(-c4ccc5nccn5n4)c(F)cn3n2)[C@H](F)C1 [Compound 38, 1-((3R,4S)-4-((4-Amino-6-fluoro-5-(imidazo[1,2-b]pyridazin-6-yl)pyrrolo [2,1-f][1,2,4]triazin-2-yl)amino)-3-fluoropiperidin-1-yl)ethan-1-one] | 3.4 nM
2 | Nc1nc(N[C@H]2CCN(C3COC3)C[C@H]2F)nn2cc(F)c(-c3ccc4nccn4n3)c12 [Compound 39, 6-Fluoro-N2-((3R,4S)-3-fluoro-1-(oxetan-3-yl)piperidin-4-yl)-5-(imidazo[1,2-b]pyridazin-6-yl)pyrrolo[2,1-f][1,2,4]triazine-2,4-diamine] | 3.1 nM
3 | CN1CC[C@@H](Nc2nc(N)c3c(-c4ccc5nccn5n4)c(F)cn3n2)C(F)(F)C1 [Compound 40, (R)—N2-(3,3-Difluoro-1-methylpiperidin-4-yl)-6-fluoro-5-(imidazo[1,2-b]pyridazin-6-yl)pyrrolo[2,1-f][1,2,4]triazine-2,4-diamine] | 2.7 nM
4 | CC(=O)N1CC[C@@H](Nc2nc(N)c3c(-c4ccc5nccn5n4)c(F)cn3n2)C(F)(F)C1 [Compound 41, (R)-1-(4-((4-Amino-6-fluoro-5-(imidazo[1,2-b]pyridazin-6-yl)pyrrolo[2,1-f][1,2,4]triazin-2-yl)amino)-3,3-difluoropiperidin-1-yl)ethan-1-one] | 2 nM
5 | Nc1nc(N[C@@H]2CCN(C3COC3)CC2(F)F)nn2cc(F)c(-c3ccc4nccn4n3)c12 [Compound 43, (R)—N2-(3,3-Difluoro-1-(oxetan-3-yl)piperidin-4-yl)-6-fluoro-5-(imidazo [1,2-b]pyridazin-6-yl)pyrrolo[2,1-f][1,2,4]triazine-2,4-diamine] | 3.1 nM
6 | CNc1nc(N[C@@H]2CCN(C(C)=O)CC2(F)F)nn2ccc(-c3ccc4nccn4n3)c12 [Compound 46, (R)-1-(3,3-Difluoro-4-((5-(imidazo[1,2-b]pyridazin-6-yl)-4-(methylamino)pyrrolo[2,1-f][1,2,4]triazin-2-yl)amino)piperidin-1-yl)ethan-1-one] | 3 nM
7 | CNc1nc(N[C@@H]2CCN(S(C)(=O)=O)CC2(F)F)nn2ccc(-c3ccc4nccn4n3)c12 [Compound 48, (R)—N2-(3,3-Difluoro-1-(methylsulfonyl)piperidin-4-yl)-5-(imidazo[1,2-b]pyridazin-6-yl)-N4-methylpyrrolo[2,1-f][1,2,4]triazine-2,4-diamine] | 2.2 nM
8 | CNc1nc(N[C@H]2CCN(C(C)=O)C[C@H]2F)nn2cc(F)c(-c3ccc4nccn4n3)c12 [Compound 53, 1-((3R,4S)-3-Fluoro-4-((6-fluoro-5-(imidazo[1,2-b]pyridazin-6-yl)-4-(methylamino)pyrrolo[2,1-f][1,2,4]triazin-2-yl)amino)piperidin-1-yl)ethan-1-one] | 2.5 nM
9 | CNc1nc(N[C@H]2CCN(C3COC3)C[C@H]2F)nn2cc(F)c(-c3ccc4nccn4n3)c12 [Compound 54, 6-Fluoro-N^2-((3R,4S)-3-fluoro-1-(oxetan-3-yl)piperidin-4-yl)-5-(imidazo [1,2-b]pyridazin-6-yl)-N^4-methylpyrrolo[2,1-f][1,2,4]triazine-2,4-diamine] | 2.4 nM
10 | CNc1nc(N[C@@H]2CCN(C)CC2(F)F)nn2cc(F)c(-c3ccc4nccn4n3)c12 [Compound 55, (R)—N^2-(3,3-Difluoro-1-methylpiperidin-4-yl)-6-fluoro-5-(imidazo[1,2-b]pyridazin-6-yl)-N^4-methylpyrrolo[2,1-f][1,2,4]triazine-2,4-diamine] | 4 nM
11 | CNc1nc(N[C@@H]2CCN(C(C)=O)CC2(F)F)nn2cc(F)c(-c3ccc4nccn4n3)c12 [Compound 56, (R)-1-(3,3-Difluoro-4-((6-fluoro-5-(imidazo[1,2-b]pyridazin-6-yl)-4-(methylamino)pyrrolo[2,1-f][1,2,4]triazin-2-yl)amino)piperidin-1-yl)ethan-1-one] | 1.4 nM
12 | CNc1nc(N[C@@H]2CCN(C3COC3)CC2(F)F)nn2cc(F)c(-c3ccc4nccn4n3)c12 [Compound 58, (R)—N^2-(3,3-Difluoro-1-(oxetan-3-yl)piperidin-4-yl)-6-fluoro-5-(imidazo[1,2-b]pyridazin-6-yl)-N^4-methylpyrrolo[2,1-f][1,2,4]triazine-2,4-diamine] | 1.9 nM
13 | C[C@]1(O)CC[C@H](Nc2nc(N)c3c(-c4ccc5ncn(CCF)c5n4)ccn3n2)CC1 [Compound 112, (1r,4r)-4-((4-Amino-5-(3-(2-fluoroethyl)-3H-imidazo[4,5-b]pyridin-5-yl)pyrrolo[2,1-f][1,2,4]triazin-2-yl)amino)-1-methylcyclohexan-1-ol] | 1.2 nM
14 | CN1CC[C@H](Nc2nc(N)c3c(-c4ccc5ncn(CCF)c5n4)ccn3n2)[C@H](F)C1 [Compound 113, N^2-((3R,4S)-3-Fluoro-1-methylpiperidin-4-yl)-5-(3-(2-fluoroethyl)-3H-imidazo[4,5-b]pyridin-5-yl)pyrrolo[2,1-f][1,2,4]triazine-2,4-diamine] | 0.8 nM
15 | COCCN1CC[C@H](Nc2nc(N)c3c(-c4ccc5ncn(CCF)c5n4)ccn3n2)[C@H](F)C1 [Compound 114, N^2-((3R,4S)-3-Fluoro-1-(2-methoxyethyl)piperidin-4-yl)-5-(3-(2-fluoroethyl)-3H-imidazo[4,5-b]pyridin-5-yl)pyrrolo[2,1-f][1,2,4]triazine-2,4-diamine] | 1.6 nM
16 | CC(=O)N1CC[C@H](Nc2nc(N)c3c(-c4ccc5ncn(CCF)c5n4)ccn3n2)[C@H](F)C1 [Compound 115, 1-((3R,4S)-4-((4-Amino-5-(3-(2-fluoroethyl)-3H-imidazo[4,5-b]pyridin-5-yl)pyrrolo[2,1-f][1,2,4]triazin-2-yl)amino)-3-fluoropiperidin-1-yl)ethan-1-one] | 1 nM
17 | Nc1nc(N[C@@H]2CCN(C3COC3)C[C@@H]2F)nn2ccc(-c3ccc4ncn(CCF)c4n3)c12 [Compound 116, N^2-((3S,4R)-3-Fluoro-1-(oxetan-3-yl)piperidin-4-yl)-5-(3-(2-fluoroethyl)-3H-imidazo[4,5-b]pyridin-5-yl)pyrrolo[2,1-f][1,2,4]triazine-2,4-diamine] | 1.6 nM
18 | Nc1nc(N[C@H]2CCN(C3COC3)C[C@H]2F)nn2ccc(-c3ccc4ncn(CCF)c4n3)c12 [Compound 117, N^2-((3R,4S)-3-Fluoro-1-(oxetan-3-yl)piperidin-4-yl)-5-(3-(2-fluoroethyl)-3H-imidazo[4,5-b]pyridin-5-yl)pyrrolo[2,1-f][1,2,4]triazine-2,4-diamine] | 0.9 nM
19 | CC(=O)N1CC[C@@H](Nc2nc(N)c3c(-c4ccc5ncn(CCF)c5n4)ccn3n2)C(F)(F)C1 [Compound 118, (R)-1-(4-((4-Amino-5-(3-(2-fluoroethyl)-3H-imidazo[4,5-b]pyridin-5-yl)pyrrolo[2,1-f][1,2,4]triazin-2-yl)amino)-3,3-difluoropiperidin-1-yl)ethan-1-one] | 0.5 nM
20 | Nc1nc(N[C@@H]2CCN(C3COC3)CC2(F)F)nn2ccc(-c3ccc4ncn(CCF)c4n3)c12 [Compound 119, (R)—N^2-(3,3-Difluoro-1-(oxetan-3-yl)piperidin-4-yl)-5-(3-(2-fluoroethyl)-3H-imidazo[4,5-b]pyridin-5-yl)pyrrolo[2,1-f][1,2,4]triazine-2,4-diamine] | 1.4 nM
21 | CN1CC[C@H](Nc2nc(N)c3c(-c4ccc5ncn(CC(F)F)c5n4)ccn3n2)[C@H](F)C1 [Compound 120, 5-(3-(2,2-Difluoroethyl)-3H-imidazo[4,5-b]pyridin-5-yl)-N^2-((3R,4S)-3-fluoro-1-methylpiperidin-4-yl)pyrrolo[2,1-f][1,2,4]triazine-2,4-diamine] | 0.7 nM
22 | COCCN1CC[C@H](Nc2nc(N)c3c(-c4ccc5ncn(CC(F)F)c5n4)ccn3n2)[C@H](F)C1 [Compound 121, 5-(3-(2,2-difluoroethyl)-3H-imidazo[4,5-b]pyridin-5-yl)-N^2-((3R,4S)-3-fluoro-1-(2-methoxyethyl)piperidin-4-yl)pyrrolo[2,1-f][1,2,4]triazine-2,4-diamine] | 0.8 nM
23 | Nc1nc(N[C@@H]2CCN(C3COC3)C[C@@H]2F)nn2ccc(-c3ccc4ncn(CC(F)F)c4n3)c12 [Compound 122, 5-(3-(2,2-Difluoroethyl)-3H-imidazo[4,5-b]pyridin-5-yl)-N^2-((3S,4R)-3-fluoro-1-(oxetan-3-yl)piperidin-4-yl)pyrrolo[2,1-f][1,2,4]triazine-2,4-diamine] | 1.1 nM
24 | C[C@]1(O)CC[C@H](Nc2nc(N)c3c(-c4ccc5ncn(CC(F)(F)F)c5n4)ccn3n2)CC1 [Compound 123, (1r,4r)-4-((4-Amino-5-(3-(2,2,2-trifluoroethyl)-3H-imidazo[4,5-b]pyridin-5-yl)pyrrolo[2,1-f][1,2,4]triazin-2-yl)amino)-1-methylcyclohexan-1-ol] | 1.9 nM
